Legend:
[1] = HNO production via N2O quantification (GC headspace), PBS buffer pH 7.4; format: physicochemical; settings: pH 7.4, 37° C. under argon, relative to Angeli's salt
Experimental: (§1) Nitrous oxide is produced via the dimerization and dehydration of HNO, and is the most common marker for HNO production (Fukuto, J. M. et al., Chem. Res. Toxicol. 2005, 18, 790-801).
(§2) The ability of compounds to donate HNO is assessed. N2O results are reported relative to Angeli's salt. All decompositions are carried out at 37° C. under argon.

[2] = tested on: esterase; experiment: HNO production via N2O quantification (GC headspace), PBS buffer pH 7.4 with added esterase; format: in vitro ADME; settings: pH 7.4 with 2-4 mg added esterase, 37° C. under argon, relative to Angeli's salt, N2O measured at 1 hr
Experimental: as §1, §2

Row | Structure (SMILES) | % N2O pH 7.4 ([1]; no measurement time printed) [%] | % N2O pH 7.4 ([1]; N2O measured at 5 hr) | % N2O esterase [2]
1 | CC(C)(C)C(=O)N(O)S(=O)(=O)c1c(Cl)cccc1Cl [Compound 16, N-hydroxy-N-trimethylacetyl-2,6-dichlorobenzenesulfonamide] | 41 |  | 
2 | CC(=O)ONS(=O)(=O)c1ccccc1Br [Compound 2, N-(acetyloxy)-2-bromobenzenesulfonamide] |  | <3 (5 hr) % | 53 (1 hr) %
3 | O=C(c1ccccc1)N(O)S(=O)(=O)c1ccccc1 [Compound 15, N-hydroxy-N-benzoyl- benzenesulfonamide] | 19 |  | 
4 | CC(=O)ONS(=O)(=O)c1c(Cl)cccc1Cl [Compound 3, N-acetyloxy-2,6-dichlorobenzenesulfonamide] |  | <3 (5 hr) % | 56 (1 hr) %
